According to patent US8304422B2, “Compositions and methods for inhibition of the JAK pathway” (Rigel Pharmaceuticals, Inc., priority 2007, dated 2012):

What was measured:
[1] = tested on: Ramos B-Cell Line Stimulated with IL-4; experiment: Assay for Ramos B-Cell Line Stimulated with IL-4 (CD23 upregulation, FACS; Example 2); format: cell-based; conditions: human Ramos B cells, IL-4 50 units/mL for 20-24 hours, anti-CD23-PE
Text: One means of assaying for such inhibition is detection of the effect of the 2,4-pyrimidinediamine compounds on the upregulation of downstream gene products. In the Ramos/IL4 assay, B-cells are stimulated with the cytokine Interleukin-4 (IL-4) leading to the activation of the JAK/Stat pathway through phosphorylation of the JAK family kinases, JAK1 and JAK3, which in turn phosphorylate and activate the transcription factor Stat-6. […] To study the effect of inhibitors (e.g., the 2,4-substituted pyrimindinediamine compounds described herein) on the JAK1 and JAK3 kinases, human Ramos B cells are stimulated with human IL-4. 20 to 24 hours post stimulation, cells are stained for upregulation of CD23 and analyzed using flow cytometry (FACS). […] An exemplary assay of this type is described in greater detail in Example 2.
B-cells stimulated with cytokine Interleukin-4 (IL-4) activate the JAK/Stat pathway through phosphorylation of the JAK family kinases, JAK-1 and JAK-3, which in turn phosphorylate and activate the transcription factor Stat-6. […] To study the effect of inhibitors on the JAK family kinases, human Ramos B cells are stimulated with human IL-4.
The Ramos B-cell line was acquired from ATCC (ATCC Catalog No. CRL-1596). The cells were cultured in RPMI 1640 (Cellgro, MediaTech, Inc., Herndon, Va., Cat No. 10-040-CM) with 10% fetal bovine serum (FBS), heat inactivated (JRH Biosciences, Inc, Lenexa, Kans., Cat No. 12106-500M) according to ATCC propagation protocol. Cells were maintained at a density of 3.5×10^5. The day before the experiment, Ramos B-cells were diluted to 3.5×10^5 cells/mL to ensure that they were in a logarithmic growth phase.
Cells were spun down and suspended in RPMI with 5% serum. 5×10^4 cells were used per point in a 96-well tissue culture plate. Cells were pre-incubated with compound or DMSO (Sigma-Aldrich, St. Louis, Mo., Cat No. D2650) vehicle control for 1 hour in a 37° C. incubator.
Cells were then stimulated with IL-4 (Peprotech Inc., Rocky Hill, N.J., Cat No. 200-04) for a final concentration of 50 units/mL for 20-24 hours. Cells were then spun down and stained with anti-CD23-PE (BD Pharmingen, San Diego, Calif., Cat No. 555711) and analyzed by FACS. Detection was performed using a BD LSR I System Flow Cytometer, purchased from Becton Dickinson Biosciences of San Jose, Calif.

BaF3 V617F cells; UKE-1 = experiment: Proliferation Assay (Cell Titer-Glo; Example 7); format: cell-based; conditions: proliferation 72 hours, inhibit JAK2 activity, cell line (BaF3 V617F or UKE-1) not stated
Procedure, shortened: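 Proliferation IC50s reflect 72 h compound exposure at 37 °C, read by Cell Titer-Glo luminescence. Compound was serially diluted 3-fold from a 5 mM DMSO stock and added as a 2× solution; BaF3 V617F cells were grown in RPMI/10% FBS, UKE-1 in Iscove's DMEM with FBS, equine serum and hydrocortisone.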

Row | SMILES | IC50 [1] [nM] | IC50 (BaF3 V617F cells; UKE-1) [nM]
1 | O=S(=O)(NCc1ccc(Nc2nc(Nc3ccc4ccn(CCN5CCOCC5)c4c3)ncc2F)cc1)C1CC1 [III-1, N4-[4-(Cyclopropylsulfonylaminomethyl)phenyl]-5-fluoro-N2-[1-(2-(N-morpholino)ethyl)indol-6-yl]-2,4-pyrimidinediamine] | 290 | 2970
2 | Cc1cnc(Nc2ccc(C(N)=O)cc2)nc1Nc1cccc(CN(C)S(=O)(=O)C2CC2)c1 [II-21, N2-(4-aminocarbonyl)phenyl-N4-[3-(N-cyclopropylsulfonyl-N-methyl)aminomethyl]phenyl-5-methyl-2,4-pyrimidinediamine] | 110 | 479
3 | COc1c(C)cc(Nc2ncc(C)c(Nc3ccc(CNS(=O)(=O)C4CC4)cc3)n2)cc1C [II-42, N4-(4-cyclopropylsulfonylaminomethyl)phenyl-N2-(3,5-dimethyl-4-methoxy)phenyl-5-methyl-2,4-pyrimidinediamine] | 24.7 | 63.7
4 | COc1cc(Nc2ncc(C)c(Nc3cccc(CNS(=O)(=O)C4CC4)c3)n2)cc(OC)c1OC [II-13, N4-(3-cyclopropylsulfonylaminomethyl)phenyl-5-methyl-N2-(3,4,5-trimethoxy)phenyl-2,4-pyrimidinediamine] | 126 | 359
5 | CCN1CCN(c2ccc(Nc3ncc(F)c(Nc4ccc(CNS(=O)(=O)C5CC5)cc4)n3)cc2C)CC1 [II-6, N4-(4-cyclopropylsulfonylaminomethyl)phenyl-N2-[4-(4-ethylpiperazino)-3-methyl]phenyl-5-fluoro-2,4-pyrimidinediamine] | 36.4 | 138
6 | Cc1cnc(Nc2cccc(C#N)c2)nc1Nc1cccc(CNS(=O)(=O)C2CC2)c1 [II-26, N2-(3-cyano)phenyl-N4-(3-cyclopropylsulfonylaminomethyl)phenyl-5-methyl-2,4-pyrimidinediamine] | 146 | 2240
7 | COc1cc(Nc2ncc(F)c(Nc3ccc(CNS(=O)(=O)C4CC4)cc3)n2)cc(OC)c1OC [II-1, N4-(4-cyclopropylsulfonylaminomethyl)phenyl-5-fluoro-N2-(3,4,5-trimethoxy)phenyl-2,4-pyrimidinediamine] | 123 | 405
8 | N#Cc1cccc(Nc2ncc(F)c(Nc3ccc(CNS(=O)(=O)C4CC4)cc3)n2)c1 [II-30, N2-(3-cyano)phenyl-N4-(4-cyclopropylsulfonylaminomethyl)phenyl-5-fluoro-2,4-pyrimidinediamine] | 94.6 | 1130
9 | Cc1cc(C)cc(Nc2ncc(C)c(Nc3cccc(CNS(=O)(=O)C4CC4)c3)n2)c1 [II-11, N4-(3-cyclopropylsulfonylaminomethyl)phenyl-N2-(3,5-dimethyl)phenyl-5-methyl-2,4-pyrimidinediamine] | 254 | 2800
10 | COc1c(C)cc(Nc2ncc(F)c(Nc3ccc(CNS(=O)(=O)C4CC4)cc3)n2)cc1C [II-41, N4-(4-cyclopropylsulfonylaminomethyl)phenyl-N2-(3,5-dimethyl-4-methoxy)phenyl-5-fluoro-2,4-pyrimidinediamine] | 37.8 | 123
11 | Cc1cc(C)cc(Nc2ncc(C)c(Nc3cccc(CN(C)S(=O)(=O)C4CC4)c3)n2)c1 [II-40, N4-[3-(N-cyclopropylsulfonyl-N-methyl)aminomethyl]phenyl-N2-(3,5-dimethyl)phenyl-5-methyl-2,4-pyrimidinediamine] | 704 | 2200
12 | COc1ccc(Nc2ncc(C)c(Nc3cccc(CNS(=O)(=O)C4CC4)c3)n2)cc1Cl [II-14, N2-(3-chloro-4-methoxy)phenyl-N4-(3-cyclopropylsulfonylaminomethyl)phenyl-5-methyl-2,4-pyrimidinediamine] | 152 | 2190
13 | NC(=O)c1ccc(Nc2ncc(Cl)c(Nc3ccc(CNS(=O)(=O)C4CC4)cc3)n2)cc1 [II-37, N2-(4-aminocarbonyl)phenyl-5-chloro-N4-(4-cyclopropylsulfonylaminomethyl)phenyl-2,4-pyrimidinediamine] | 18.3 | 875
14 | CCN1CCN(c2ccc(Nc3ncc(C)c(Nc4cccc(CNS(=O)(=O)C5CC5)c4)n3)cc2C)CC1 [II-12, N4-(3-cyclopropylsulfonylaminomethyl)phenyl-N2-[4-(4-ethylpiperazino)-3-methyl]phenyl-5-methyl-2,4-pyrimidinediamine] | 101 | 130
15 | Cc1cnc(Nc2ccc3c(c2)nc(C)n3C)nc1Nc1ccc(CNS(=O)(=O)C2CC2)cc1 [IV-7, N4-(4-cyclopropylsulfonylaminomethyl)phenyl-N2-(1,2-dimethylbenzoimidazol-5-yl)-5-methyl-2,4-pyrimidinediamine] | 116 | 796
16 | Cc1cnc(Nc2ccc(C(N)=O)cc2)nc1Nc1cccc(CNS(=O)(=O)C2CC2)c1 [II-23, N2-(4-aminocarbonyl)phenyl-N4-(3-cyclopropylsulfonylaminomethyl)phenyl-5-methyl-2,4-pyrimidinediamine] | 107 | 6140
17 | Cc1nc2cc(Nc3ncc(C)c(Nc4ccc(CNS(=O)(=O)C5CC5)cc4)n3)ccc2[nH]1 [III-3, N4-(4-cyclopropylsulfonylaminomethyl)phenyl-5-methyl-N2-(2-methylbenzoimidazol-5-yl)-2,4-pyrimidinediamine] | 49.4 | 5800
18 | Cc1cnc(Nc2ccc(C(N)=O)cc2)nc1Nc1ccc(CN(C)S(=O)(=O)C2CC2)cc1 [II-19, N2-(4-aminocarbonyl)phenyl-N4-[4-(N-cyclopropylsulfonyl-N-methyl)aminomethyl]phenyl-5-methyl-2,4-pyrimidinediamine] | 106 | 2210
19 | NC(=O)c1cccc(Nc2ncc(F)c(Nc3ccc(CNS(=O)(=O)C4CC4)cc3)n2)c1 [II-16, N2-(3-aminocarbonyl)phenyl-N4-(4-cyclopropylsulfonylaminomethyl)phenyl-5-fluoro-2,4-pyrimidinediamine] | 265 | 3290
20 | Cc1cc(C)cc(Nc2ncc(Cl)c(Nc3ccc(CNS(=O)(=O)C4CC4)cc3)n2)c1 [II-36, 5-chloro-N4-(4-cyclopropylsulfonylaminomethyl)phenyl-N2-(3,5-dimethyl)phenyl-2,4-pyrimidinediamine] | 38.1 | 599
21 | Cc1cnc(Nc2ccc(C3CCN(C)CC3)cc2)nc1Nc1ccc2c(c1)C(NS(C)(=O)=O)CC2 (racemic) [V-2, (+/−)-5-Methyl-N2-[4-(1-methyl-4-piperidinyl)pheny]-N4-[1-(methylsulfonyl)aminoindan-6-yl]-2,4-pyrimidinediamine] | 1220 | 807
22 | Cc1cnc(Nc2ccc(C#N)cc2)nc1Nc1ccc(CNS(=O)(=O)C2CC2)cc1 [II-33, N2-(4-cyano)phenyl-N4-(4-cyclopropylsulfonylaminomethyl)phenyl-5-methyl-2,4-pyrimidinediamine] | 20.3 | 698
23 | Cc1cnc(Nc2ccc(C#N)cc2)nc1Nc1cccc(CNS(=O)(=O)C2CC2)c1 [II-25, N2-(4-cyano)phenyl-N4-(3-cyclopropylsulfonylaminomethyl)phenyl-5-methyl-2,4-pyrimidinediamine] | 142 | 2300
24 | Cc1cnc(Nc2cccc(C(N)=O)c2)nc1Nc1cccc(CN(C)S(=O)(=O)C2CC2)c1 [II-22, N2-(3-aminocarbonyl)phenyl-N4-[3-(N-cyclopropylsulfonyl-N-methyl)aminomethyl]phenyl-5-methyl-2,4-pyrimidinediamine] | 302 | 2690
25 | COc1ccc(Nc2ncc(Cl)c(Nc3ccc(CNS(=O)(=O)C4CC4)cc3)n2)cc1Cl [II-35, 5-chloro-N2-(3-chloro-4-methoxy)phenyl-N4-(4-cyclopropylsulfonylaminomethyl)phenyl-2,4-pyrimidinediamine] | 48.9 | 912
26 | NC(=O)c1ccc(Nc2ncc(F)c(Nc3ccc(CNS(=O)(=O)C4CC4)cc3)n2)cc1 [II-15, N2-(4-aminocarbonyl)phenyl-N4-(4-cyclopropylsulfonylaminomethyl)phenyl-5-fluoro-2,4-pyrimidinediamine] | 78.1 | 8060
